Laboratory results reported in patent US20070219186A1, “Pyrazolo[1,5-A]pyrimidine derivatives and methods of use thereof” (priority 2006, published 2007).
Read-outs that look alike come from different tables or passages of the source.

Biological target: T1, human B-Raf (Homo sapiens, UniProt P15056)
T1 construct: Flag; GST; made in house; host or cells: Sf9 insect cells (B-Raf); E. coli (MEK1-GST)
Assay: B-Raf Kinase to MEK1 ELISA
Type: biochemical
Details: for inhibition at 10 µM: read-out: % Inhib./10 uM
Outline: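 Read-out is a DELFIA europium signal from phospho-MEK1 (Ser217/221) antibody after capture of GST-MEK1 (50 nM final) on anti-GST plates. Phosphorylation comes from Sf9-expressed Flag/GST human B-Raf (~20 ng) with ATP/MgCl2, 60 min RT, pH 7.2 MOPS.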

[1] = median, cpd concentrations from 10 μM to 30 nM in half log dilutions, read-out: Median IC50

T1 sequence (P15056 whole entry): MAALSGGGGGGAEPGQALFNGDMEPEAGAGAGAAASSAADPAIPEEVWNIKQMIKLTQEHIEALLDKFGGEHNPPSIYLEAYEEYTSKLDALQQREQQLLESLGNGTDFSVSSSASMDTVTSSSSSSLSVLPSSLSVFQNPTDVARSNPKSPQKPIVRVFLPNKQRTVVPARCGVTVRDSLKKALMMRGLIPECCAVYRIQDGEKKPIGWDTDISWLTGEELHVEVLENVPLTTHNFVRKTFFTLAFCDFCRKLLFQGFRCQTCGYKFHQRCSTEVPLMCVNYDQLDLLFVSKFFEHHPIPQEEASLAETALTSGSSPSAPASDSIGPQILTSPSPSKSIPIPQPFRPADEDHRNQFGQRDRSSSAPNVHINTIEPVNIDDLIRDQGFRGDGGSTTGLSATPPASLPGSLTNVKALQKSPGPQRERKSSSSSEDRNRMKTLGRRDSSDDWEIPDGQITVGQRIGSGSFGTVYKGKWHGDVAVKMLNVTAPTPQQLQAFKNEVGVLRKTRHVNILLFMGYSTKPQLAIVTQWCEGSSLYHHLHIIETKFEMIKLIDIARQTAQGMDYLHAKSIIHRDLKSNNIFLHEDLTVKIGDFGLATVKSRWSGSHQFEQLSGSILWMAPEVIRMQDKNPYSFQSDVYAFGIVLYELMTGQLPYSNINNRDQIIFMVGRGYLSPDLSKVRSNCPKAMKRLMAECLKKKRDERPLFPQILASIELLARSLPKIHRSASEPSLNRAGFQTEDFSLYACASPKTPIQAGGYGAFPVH

Compound	IC50 [1] [µM]	inhibition at 10 µM [%]	IC50 [µM]	inhibition at 10 µM (single point assay, 10 uM) [%]
Cc1ccc(C(=O)Nc2cccc(-c3ccnc4c(-c5nn[nH]n5)cnn34)c2)cc1C(F)(F)F [Example 66, 4-methyl-N-{3-[3-(2H-tetrazol-5-yl)pyrazolo[1,5-a]pyrimidin-7-yl]phenyl}-3-(trifluoromethyl)benzamide]	> 10	18		
Cc1ccc(C(=O)Nc2cccc(-c3ccnc4c(C(N)=O)cnn34)c2)cc1C(F)(F)F [Example 67, 7-(3-{[4-methyl-3-(trifluoromethyl)benzoyl]amino}phenyl)pyrazolo[1,5-a]pyrimidine-3-carboxamide]	> 10	6		
Cc1ccc(C(=O)Nc2cccc(-c3ccnc4c(C#N)c(N5CCNCC5)nn34)c2)cc1C(F)(F)F [Example 68, N-[3-(3-cyano-2-piperazin-1-ylpyrazolo[1,5-a]pyrimidin-7-yl)phenyl]-4-methyl-3-(trifluoromethyl)benzamide]	8.4	45		
Cc1ccc(C(=O)Nc2cccc(-c3ccnc4c(C#N)cnn34)c2)cc1C(F)(F)F [Example 69, N-[3-(3-cyanopyrazolo[1,5-a]pyrimidin-7-yl)phenyl]-4-methyl-3-(trifluoromethyl)benzamide]	> 10	13		
CCOC(=O)c1cnn2c(-c3cccc(NC(=O)c4cccc(Cl)c4)c3)ccnc12 [Example 70, Ethyl 7-{3-[(3-chlorobenzoyl)amino]phenyl}pyrazolo[1,5-a]pyrimidine-3-carboxylate]	> 10	0		
CCOC(=O)c1cnn2c(-c3cccc(NC(=O)c4ccc(OC)c(Cl)c4)c3)ccnc12 [Example 73, ethyl 7-{3-[(3-chloro-4-methoxybenzoyl)amino]phenyl}pyrazolo[1,5-a]pyrimidine-3-carboxylate]	> 10	5		
CCOC(=O)c1cnn2c(-c3cccc(NC(=O)c4cc(Cl)ccc4C)c3)ccnc12 [Example 74, ethyl 7-{3-[(5-chloro-2-methylbenzoyl)amino]phenyl}pyrazolo[1,5-a]pyrimidine-3-carboxylate]	> 10	10		
CCOC(=O)c1cnn2c(-c3cccc(NC(=O)Nc4ccc(C#N)c(C(F)(F)F)c4)c3)ccnc12 [Example 78, ethyl 7-{3-[({[4-cyano-3-(trifluoromethyl)phenyl]amino}carbonyl)amino]phenyl}pyrazolo[1,5-a]pyrimidine-3-carboxylate]			0.57	85
CCOC(=O)c1cnn2c(-c3cccc(NC(=O)Nc4ccc(C)c(C(F)(F)F)c4)c3)ccnc12 [Example 79, ethyl 7-{3-[({[4-methyl-3-(trifluoromethyl)phenyl]amino}carbonyl)amino]phenyl}pyrazolo[1,5-a]pyrimidine-3-carboxylate]	0.37	88		
CCOC(=O)c1cnn2c(-c3cccc(NC(=O)Nc4cccc(Cl)c4)c3)ccnc12 [Example 80, Ethyl 7-[3-({[(3-chlorophenyl)amino]carbonyl}amino)phenyl]-pyrazolo[1,5-a]pyrimidine-3-carboxylate]		47		
CCOC(=O)c1cnn2c(-c3cccc(NC(=O)Nc4ccc(OC)c(Cl)c4)c3)ccnc12 [Example 81, ethyl 7-[3-({[(3-chloro-4-methoxyphenyl)amino]carbonyl}amino)phenyl]pyrazolo[1,5-a]pyrimidine-3-carboxylate]	6.15	50		
CCOC(=O)c1cnn2c(-c3cccc(NC(=O)Nc4ccc(C)c(Cl)c4)c3)ccnc12 [Example 82, ethyl 7-[3-({[(3-chloro-4-methylphenyl)amino]carbonyl}amino)phenyl]pyrazolo[1,5-a]pyrimidine-3-carboxylate]	0.57	77		
CCOC(=O)c1cnn2c(-c3cccc(NC(=O)Nc4ccc(Br)c(Cl)c4)c3)ccnc12 [Example 83, ethyl 7-[3-({[(4-bromo-3-chlorophenyl)amino]carbonyl}amino)phenyl]pyrazolo[1,5-a]pyrimidine-3-carboxylate]	0.6	71		
CCOC(=O)c1cnn2c(-c3cccc(NC(=O)Nc4ccc(N5CCOCC5)c(Cl)c4)c3)ccnc12 [Example 84, ethyl 7-[3-({[(3-chloro-4-morpholin-4-ylphenyl)amino]carbonyl}amino)phenyl]pyrazolo[1,5-a]pyrimidine-3-carboxylate]	> 10	22		
CCOC(=O)c1cnn2c(-c3ccc(N4CC(C)OC(C)C4)c(NC(=O)c4cccc(C(F)(F)F)c4)c3)ccnc12 (stereo not shown) [Example 87, ethyl 7-(4-(2,6-dimethylmorpholin-4-yl)-3-{[3-(trifluoromethyl)benzoyl]amino}phenyl)pyrazolo[1,5-a]pyrimidine-3-carboxylate]	> 10	9		
CCOC(=O)c1cnn2c(-c3ccc(OCc4ccccc4)c(NC(=O)c4cccc(C(F)(F)F)c4)c3)ccnc12 [Example 90, ethyl 7-(4-(benzyloxy)-3-{[3-(trifluoromethyl)benzoyl]amino}phenyl)pyrazolo[1,5-a]pyrimidine-3-carboxylate]	> 10	4		
CCOC(=O)c1cnn2c(-c3cccc(NC(=O)Cc4cccc(Br)c4)c3)ccnc12 [Example 92, ethyl 7-(3-{[(3-bromophenyl)acetyl]amino}phenyl)pyrazolo[1,5-a]pyrimidine-3-carboxylate]	> 10	97		
CCOC(=O)c1cnn2c(-c3cccc(NC(=O)Cc4cccc(F)c4)c3)ccnc12 [Example 93, ethyl 7-(3-{[(3-fluorophenyl)acetyl]amino}phenyl)pyrazolo[1,5-a]pyrimidine-3-carboxylate]	> 10	0		
CCOC(=O)c1cnn2c(-c3cccc(NC(=O)Cc4cccc(Cl)c4)c3)ccnc12 [Example 94, ethyl 7-(3-{[(3-chlorophenyl)acetyl]amino}phenyl)pyrazolo[1,5-a]pyrimidine-3-carboxylate]	> 10	14		
CCOC(=O)c1cnn2c(-c3cccc(NC(=O)Cc4ccc(Cl)c(Cl)c4)c3)ccnc12 [Example 95, ethyl 7-(3-{[(3,4-dichlorophenyl)acetyl]amino}phenyl)pyrazolo[1,5-a]pyrimidine-3-carboxylate]	> 10	39		
CCOC(=O)c1cnn2c(-c3cccc(NC(=O)Cc4cccc(OC)c4)c3)ccnc12 [Example 96, ethyl 7-(3-{[(3-methoxyphenyl)acetyl]amino}phenyl)pyrazolo[1,5-a]pyrimidine-3-carboxylate]	> 10	0		

Second part, led by results:

IC50 [1] [µM]	inhibition at 10 µM [%]	Compound	IC50 [µM]	inhibition at 10 µM (single point assay, 10 uM) [%]
> 10	0	CCOC(=O)c1cnn2c(-c3cccc(NC(=O)c4ccc(Cl)c(Cl)c4)c3)ccnc12 [Example 71, ethyl 7-{3-[(3,4-dichlorobenzoyl)amino]phenyl}pyrazolo[1,5-a]pyrimidine-3-carboxylate]		
> 10	4	CCOC(=O)c1cnn2c(-c3cccc(NC(=O)c4cc(Cl)cc(Cl)c4)c3)ccnc12 [Example 72, ethyl 7-{3-[(3,5-dichlorobenzoyl)amino]phenyl}pyrazolo[1,5-a]pyrimidine-3-carboxylate]		
6.6	58	CCOC(=O)c1cnn2c(-c3cccc(NC(=O)c4cc(F)cc(C(F)(F)F)c4)c3)ccnc12 [Example 75, ethyl 7-(3-{[3-fluoro-5-(trifluoromethyl)benzoyl]amino}phenyl)pyrazolo[1,5-a]pyrimidine-3-carboxylate]		
> 10	0	CCOC(=O)c1cnn2c(-c3cccc(NC(=O)c4ccc(F)cc4C(F)(F)F)c3)ccnc12 [Example 76, ethyl 7-(3-{[4-fluoro-2-(trifluoromethyl)benzoyl]amino}phenyl)pyrazolo[1,5-a]pyrimidine-3-carboxylate]		
0.99	72	CCOC(=O)c1cnn2c(-c3cccc(NC(=O)Nc4cc(OC)cc(C(F)(F)F)c4)c3)ccnc12 [Example 77, ethyl 7-{3-[({[3-methoxy-5-(trifluoromethyl)phenyl]amino}carbonyl)amino]phenyl}pyrazolo[1,5-a]pyrimidine-3-carboxylate]		
0.41	81	CCOC(=O)c1cnn2c(-c3cc(NC(=O)c4cccc(C(F)(F)F)c4)ccc3[N+](=O)[O-])ccnc12 [Example 85, ethyl 7-(2-nitro-5-{[3-(trifluoromethyl)benzoyl]amino}phenyl)pyrazolo[1,5-a]pyrimidine-3-carboxylate]		
> 10	18	CCOC(=O)c1cnn2c(-c3ccc(Cl)c(NC(=O)c4cccc(C(F)(F)F)c4)c3)ccnc12 [Example 86, ethyl 7-(4-chloro-3-{[3-(trifluoromethyl)benzoyl]amino}phenyl)pyrazolo[1,5-a]pyrimidine-3-carboxylate]		
> 10	14	CCOC(=O)c1cnn2c(-c3ccc(OC)c(NC(=O)c4cccc(C(F)(F)F)c4)c3)ccnc12 [Example 88, ethyl 7-(4-methoxy-3-{[3-(trifluoromethyl)benzoyl]amino}phenyl)pyrazolo[1,5-a]pyrimidine-3-carboxylate]		
2.17	65	CCOC(=O)c1cnn2c(-c3ccc(F)c(NC(=O)c4cccc(C(F)(F)F)c4)c3)ccnc12 [Example 89, ethyl 7-(4-fluoro-3-{[3-(trifluoromethyl)benzoyl]amino}phenyl)pyrazolo[1,5-a]pyrimidine-3-carboxylate]		
0.112	94	CCOC(=O)c1cnn2c(-c3cc(NC(=O)c4cccc(C(F)(F)F)c4)ccc3F)ccnc12 [Example 91, ethyl 7-(2-fluoro-5-{[3-(trifluoromethyl)benzoyl]amino}phenyl)pyrazolo[1,5-a]pyrimidine-3-carboxylate]		
